“Also recorded” adds a separate entry of the source.
Legend:
[1] = tested on: priming of allogeneic T cell responses by C57Bl6/J splenocytes; assay: One-way mixed leukocyte reaction (MLR), stimulator splenocytes treated in vitro; type: cell-based, mouse; conditions: splenocytes cultured with compound 72 hr, added at 0, 24 and 48 hr
Protocol: Mean proliferation of 100K BALB/C responders as measured by ^3H-Thymidine uptake after exposure to 200K irradiated BL6 stimulators that were treated with the indicated compound, 1×DMSO or 1× EtOH prior to initiation of the mixed leukocyte reaction (MLR). 1×DMSO serves as the allogeneic MLR positive control for all compounds with the exception of HLM85321 for which 1× EtOH is the positive control. [*p<0.05, **p<0.01].
Spleen cells and lymphe node LN cells are normally robust stimulators of allogeneic T cell responses in the one-way mixed leukocyte reaction (MLR) assay, but they are very poor stimulators when obtained from mice with germline or induced SHIP-deficiency. […]
Mixed leukocyte reactions (MLR): Following RBC lysis, irradiated (2000 Rads) BL6 splenocytes (stimulators) at 8×10^5 cells/well were combined with BALB/c splenocytes (responders) at 4×10^5 cells/well in a one-way MLR assay. […] Incorporated [3H]thymidine was quantitated using a Packard TopCount NXT. Specific [3H]thymidine incorporation into genomic DNA was calculated as the average of the mean (±SEM) of sextuplicate wells. […]

[2] = tested on: human multiple myeloma cell lines U266, RPMI8226 and OPM2; assay: MTT dye assay of multiple myeloma cell lines; type: cell-based; conditions: increasing concentrations
From the text: (A) SHIP1 expression in human multiple myeloma (MM) cell lines as presented in the western blot analysis. SHIP is expressed in the human multiple myeloma cell lines U266, RPMI8226 and OPM2. The expression in the MM cell lines is shown relative to that observed in MG63 and HS-5 cell lines. MG63 is an osteosarcoma cell line, and HS-5 is a human bone marrow stroma cell line. […] Actin is provided as a control. (B) Results of MTT dye assays of MM cell lines. […] RUO is “relative units optical”. (C) Apoptosis in OPM and RPMI cell lines at increasing concentrations of 3α-aminocholestane.

[3] = tested on: MG63 cells; assay: MTT cell viability assay, MG63; type: cell-based; conditions: MG63, lacks SHIP1 expression, 36 hours
Protocol: (A) SHIP1 expression in KG1 and MG63 cells was determined by Western blotting (top). Membranes were reprobed with antibodies against b-actin to confirm equal loading (lower panel). One representative blot of 2 individual experiments is shown. (B) KG1 and MG63 cells were plated in duplicate in 96 well plates, and treated for 36 hours with increasing concentrations of the 3α-aminocholestane. Cell viability was assessed by MTT assay. Results represent the mean of three individual experiments. (C) KG1 cells were treated with increasing concentrations of 3α-aminocholestane for 36 hours and hallmarks of apoptosis were identified in cell lysates by Western Blot analysis. […] (D) KG1 cells were treated with increasing concentrations of 3α-aminocholestane, and the percentage of AnnexinV and PI positive cells was determined by FACS analysis. […]
Cell viability assay: Cells were treated in duplicate for 36 hours with increasing concentrations of 3α-aminocholestane or vehicle. […] Formed crystals were dissolved in dimethyl sulfoxide and optical density (OD) was measured at 570 nm. The OD of compound treated cells was divided by the OD of their vehicle control, and the viability was expressed as a percentage of untreated cells. Results are expressed as mean±SEM of three individual experiments.

Compound | ability of splenocytes to prime allogeneic T cell responses by BALB/C responders (3H-thymidine uptake) [1] | viability of multiple myeloma cell lines [2] | growth and survival of cells (MTT viability) [3]
OC(c1cc(-c2ccccc2)nc2c1ccc1ccccc12)C1CCCCN1 (stereo not drawn) [NSC13480, (2-phenylbenzo[h]quinolin-4-yl)-piperidin-2-ylmethanol] | significantly inhibited; also recorded: complete inability to prime allogeneic T cell responses | – | –
CC(C)CCC[C@@H](C)[C@H]1CC[C@H]2[C@@H]3CC[C@H]4C[C@H](N)CC[C@]4(C)[C@H]3CC[C@]12C [NSC23922, (3R,5S,8R,9S,10S,13R,14S,17R)-10,13-dimethyl-17-[(2R)-6-methylheptan-2-yl]-2,3,4,5,6,7,8,9,11,12,14,15,16,17-tetradecahydro-1H-cyclopenta[a]phenanthren-3-amine] | – | decrease in viability | not in cells that lacks SHIP1 expression

Reference: US9006221B2, “Method of modulating ship activity” (H. Lee Moffitt Cancer Center and Reserach Institute, Inc., priority 2008, dated 2015)
